One experiment has as its target HIS-TGF-βR1 T204D (Homo sapiens (Human), UniProt P36897, T204D). Nature of the experiment: HTRF probe displacement assay, HIS-TGF-βR1 T204D. Conditions: read-out: TGFbr1 IC50, 1 nM HIS-TGF-βR1 T204D, 1 hour at room temperature. (In TR-FRET formats the signal depends on donor and acceptor labels being close together.)
The subject of experiment [1] is GDF8 signaling (GDF pSMAD, MPC11). Nature of the experiment: AlphaScreen SureFire SMAD3 (p-Ser423/425) assay, inhibition of GDF8 signaling. The experiment is classed as cell-based. Particulars: Mus musculus, MPC-11, inhibition of GDF8 signaling, p-SMAD3 readout. For orientation: In Alpha technology, singlet oxygen from a donor bead excites a nearby acceptor bead.
Experiment [2] has as its system TGF-β signaling (TGF-β pSMAD, MPC-11). Nature of the experiment: AlphaScreen SureFire SMAD3 (p-Ser423/425) assay, inhibition of TGF-β signaling. The experiment is classed as cell-based. Particulars: Mus musculus, MPC-11, inhibition of TGF-β signaling, p-SMAD3 readout.

Each structure is given as a SMILES string.

HIS-TGF-βR1 T204D, sequence (P36897 34-503 T204D): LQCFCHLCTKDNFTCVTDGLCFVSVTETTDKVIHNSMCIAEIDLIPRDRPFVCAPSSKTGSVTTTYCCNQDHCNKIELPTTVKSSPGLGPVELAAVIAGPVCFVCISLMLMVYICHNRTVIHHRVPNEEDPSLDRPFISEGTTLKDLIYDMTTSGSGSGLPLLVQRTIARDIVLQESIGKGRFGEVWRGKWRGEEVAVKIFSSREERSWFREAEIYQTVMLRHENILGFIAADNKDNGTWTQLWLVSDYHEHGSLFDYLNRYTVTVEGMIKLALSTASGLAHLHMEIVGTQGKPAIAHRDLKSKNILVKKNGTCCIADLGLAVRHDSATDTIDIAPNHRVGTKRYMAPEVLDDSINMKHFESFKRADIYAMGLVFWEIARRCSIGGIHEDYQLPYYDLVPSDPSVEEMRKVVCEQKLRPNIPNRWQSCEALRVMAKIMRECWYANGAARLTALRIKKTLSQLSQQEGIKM

Consider `NC(=O)c1cnc2ccc(-c3c(-c4ccc(F)c(Cl)c4)ncn3[C@H]3C[C@@H](O)C3)nn12` [140′, 6-(4-(3-chloro-4-fluorophenyl)-1-((1s,3s)-3-hydroxycyclobutyl)-1H-imidazol-5-yl)imidazo[1,2-b]pyridazine-3-carboxamide], for which the half-maximal inhibitory concentration (IC50) – broadly, the concentration that gives 50% inhibition – at HIS-TGF-βR1 T204D was 2.8 nM.

Regarding `Cc1nc(-c2ccc(F)cc2)c(-c2ccc3ncc(C#N)n3c2)n1CC(F)F` [272A′, 6-(1-(2,2-difluoroethyl)-4-(4-fluorophenyl)-2-methyl-1H-imidazol-5-yl)imidazo[1,2-a]pyridine-3-carbonitrile], the IC50 at HIS-TGF-βR1 T204D was 251 nM. On to `Nc1nc(-c2ccc(F)cc2)c(-c2ccc3nccnc3c2)s1` [Compound 170, 4-(4-fluorophenyl)-5-(quinoxalin-6-yl)thiazol-2-amine], for which the half-maximal inhibitory concentration (IC50) in experiment [1] is 98.6 nM; in experiment [2], 656 nM.

In the case of `Nc1nc(-c2cccc(C(F)(F)F)c2)c(-c2ccc3nccn3c2)s1` [Compound 171, 5-(imidazo[1,2-a]pyridin-6-yl)-4-(3-(trifluoromethyl)phenyl)thiazol-2-amine], the IC50 in experiment [1] is 109 nM; in experiment [2], 423 nM.

With `Nc1nc(-c2cccc(Cl)c2)c(-c2ccc3cn[nH]c3c2)s1` [Compound 172, 4-(3-chlorophenyl)-5-(1H-indazol-6-yl)thiazol-2-amine], the IC50 was 121 nM in experiment [1] and 909 nM in experiment [2]. As for `COc1ccc(-c2nc(N)sc2-c2ccc3cn[nH]c3c2)cc1` [Compound 173, 5-(1H-indazol-6-yl)-4-(4-methoxyphenyl)thiazol-2-amine], the IC50 was found to be 124 nM in experiment [1] and 898 nM in experiment [2]. For the molecule `Cc1cc(-c2nc(N)sc2-c2ccc3cn[nH]c3c2)ccc1F` [Compound 174, 4-(4-fluoro-3-methylphenyl)-5-(1H-indazol-6-yl)thiazol-2-amine], the IC50 in experiment [1] amounted to 144 nM; in experiment [2], 431 nM.

For `Nc1nc(-c2cccc(C(F)(F)F)c2)c(-c2ccc3[nH]ncc3c2)s1` [Compound 175, 5-(1H-indazol-5-yl)-4-(3-(trifluoromethyl)phenyl)thiazol-2-amine], the IC50 in experiment [1] turned out to be 154 nM; in experiment [2], 938 nM. `Nc1nc(-c2cccc(C(F)(F)F)c2)c(-c2ccc3ncsc3c2)s1` [Compound 176, 5-(benzo[d]thiazol-6-yl)-4-(3-(trifluoromethyl)phenyl)thiazol-2-amine]: the values for the IC50 in experiment [1] and in experiment [2] were 158 nM and 600 nM, respectively. Consider `COc1cccc(-c2nc(N)sc2-c2ccc3[nH]ncc3c2)c1` [Compound 177, 5-(1H-indazol-5-yl)-4-(3-methoxyphenyl)thiazol-2-amine], for which the IC50 in experiment [1] is 234 nM; in experiment [2], 1040 nM.

Consider `Nc1nc(-c2cccc(F)c2)c(-c2ccc3ncsc3c2)s1` [Compound 178, 5-(benzo[d]thiazol-6-yl)-4-(3-fluorophenyl)thiazol-2-amine], for which the values for the IC50 in experiment [1] and in experiment [2] were 252 nM and 1100 nM, respectively. For `Nc1nc(-c2cccc(F)c2)c(-c2ccc3[nH]ncc3c2)s1` [Compound 179, 4-(3-fluorophenyl)-5-(1H-indazol-5-yl)thiazol-2-amine] the same measures were 268 nM and 1280 nM. Turning to `Nc1nc(-c2cccc(C(F)(F)F)c2)c(-c2ccc3nccnc3c2)s1` [Compound 180, 5-(quinoxalin-6-yl)-4-(3-(trifluoromethyl)phenyl)thiazol-2-amine], the IC50 in experiment [1] came to 301 nM; in experiment [2], 621 nM. Consider `Fc1ccc(-c2ncsc2-c2ccc3ncsc3c2)cc1` [Compound 181, 6-(4-(4-fluorophenyl)thiazol-5-yl)benzo[d]thiazole], for which the figures for the IC50 in experiment [1] and in experiment [2] were 336 nM and 4550 nM, respectively.

Regarding `COc1ccc(-c2nc(N)sc2-c2ccc3nccnc3c2)cc1` [Compound 182, 4-(4-methoxyphenyl)-5-(quinoxalin-6-yl)thiazol-2-amine], the IC50 came out at 352 nM in experiment [1] and 1120 nM in experiment [2]. In the case of `Nc1nc(-c2cccc(F)c2)c(-c2ccc3nccnc3c2)s1` [Compound 183, 4-(3-fluorophenyl)-5-(quinoxalin-6-yl)thiazol-2-amine], the IC50 in experiment [1] was determined as 365 nM; in experiment [2] it was 1480 nM. As for `COc1cccc(-c2nc(N)sc2-c2ccc3nccn3c2)c1` [Compound 184, 5-(imidazo[1,2-a]pyridin-6-yl)-4-(3-methoxyphenyl)thiazol-2-amine], the half-maximal inhibitory concentration (IC50) in experiment [1] was found to be 402 nM; in experiment [2], 1160 nM. Take `Nc1nc(-c2cccc(C(F)(F)F)c2)c(-c2ccc3cn[nH]c3c2)s1` [Compound 185, 5-(1H-indazol-6-yl)-4-(3-(trifluoromethyl)phenyl)thiazol-2-amine]: the figures for the IC50 in experiment [1] and in experiment [2] were 425 nM and 2360 nM, respectively. The matching figures for `COc1cccc(-c2nc(N)sc2-c2ccc3ncsc3c2)c1` [Compound 186, 5-(benzo[d]thiazol-6-yl)-4-(3-methoxyphenyl)thiazol-2-amine]: 478 nM and 1110 nM.

Regarding `Nc1nc(-c2cccc(F)c2)c(-c2ccc3nccn3c2)s1` [Compound 187, 4-(3-fluorophenyl)-5-(imidazo[1,2-a]pyridin-6-yl)thiazol-2-amine], the IC50 in experiment [1] stood at 481 nM; in experiment [2], 3100 nM. Consider `CNc1nc(-c2ccc(F)cc2)c(-c2ccc3nccn3c2)s1` [Compound 188, 4-(4-fluorophenyl)-5-(imidazo[1,2-a]pyridin-6-yl)-N-methylthiazol-2-amine], for which the IC50 was 784 nM in experiment [1] and 365 nM in experiment [2].

(Values after patent US10287295B2, “TGF-β inhibitors” (Rigel Pharmaceuticals, Inc., priority 2015, dated 2019).)
